Data as given in PubChem BioAssay (NCI).
Where “and” joins values, the source holds several entries; their conditions need not be identical. Equal entries are not always repeated.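 Growth conditions: 96-well plates. Treatment: test compound, 48 hours, 5 concentrations. Analysis: linear interpolation between bracketing concentrations; unreached endpoints set to highest concentration. Abbreviation: GI50, concentration required for 50% inhibition of growth. Definition used: TGI = concentration required for complete inhibition of growth.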 Where a SMILES comes first, the peptide text is derived from it. [ ]: non-standard residue; d: D form. 2Nal = N[CH](Cc1ccc2ccccc2c1)C(=O)O

Key:
Assay in all cases: NCI tumour cell line growth inhibition, 48 h
CCRF-CEM leukemia = system: CCRF-CEM leukemia
HCT-116 colon = system: HCT-116 colon
K-562 leukemia = system: K-562 leukemia
MALME-3M melanoma = system: MALME-3M melanoma
NCI-H23 lung = system: NCI-H23 lung
SK-MEL-28 melanoma = system: SK-MEL-28 melanoma
SNB-19 CNS = system: SNB-19 CNS
RPMI-8226 leukemia = system: RPMI-8226 leukemia
T-47D breast = system: T-47D breast

| SMILES | TGI (CCRF-CEM leukemia) | TGI (HCT-116 colon) | TGI (K-562 leukemia) | TGI (MALME-3M melanoma) | TGI (NCI-H23 lung) | TGI (SK-MEL-28 melanoma) | TGI (SNB-19 CNS) | TGI (RPMI-8226 leukemia) | GI50 (CCRF-CEM leukemia) | GI50 (NCI-H23 lung) | GI50 (RPMI-8226 leukemia) | GI50 (SNB-19 CNS) | GI50 (T-47D breast) | TGI (T-47D breast) | GI50 (HCT-116 colon) | GI50 (K-562 leukemia) |
| --- | --- | --- | --- | --- | --- | --- | --- | --- | --- | --- | --- | --- | --- | --- | --- | --- |
| CC1=C2[C@H](c3ccccc3)C3C=CC2(c2ccccc23)N(C(=O)C(c2ccccc2)c2ccccc2)C1=O (stereo partly drawn) | > 100 µM | > 100 µM | > 100 µM | > 100 µM | > 100 µM | > 100 µM | > 100 µM | – | – | – | – | – | – | – | – | – |
| Cc1cc(C)nc(NS(=O)(=O)c2ccc(NC(=O)c3ccc(Cl)c4c(Nc5ccc(S(=O)(=O)N=C(N)N)cc5)c5ccccc5nc34)cc2)n1 | – | > 100 µM | > 100 µM | > 100 µM | 17.5 µM | > 100 µM | > 100 µM | > 100 µM | – | – | – | – | – | – | – | – |
| C=C1C(=O)OC2C1C(OC(=O)/C(C)=C\C)CC1(CO1)C1C(O)C=C(C)C21O (stereo not drawn) | > 100 µM | 3.29 µM | > 100 µM | 7.65 µM | 27.2 µM | 13.2 µM | 35.2 µM | 22.2 µM | – | – | – | – | – | – | – | – |
| CCOC(=O)c1c2cccccc2n2c(=O)cc(C)nc12 | > 100 µM | – | > 100 µM | – | > 100 µM | > 100 µM | > 100 µM | > 100 µM | – | – | – | – | – | – | – | – |
| COc1ccc(/C=c2/sc3n(c2=O)NC(c2ccc(Cl)cc2)NN=3)cc1 (stereo not drawn) | > 100 µM | > 100 µM | > 100 µM | > 100 µM | > 100 µM | > 100 µM | > 100 µM | – | – | – | – | – | – | – | – | – |
| CC(=O)C1CCC2C3CC=C4CC(SC(=N)N)CCC4(C)C3CCC12C (stereo not drawn) | 4.26 µM | – | – | – | 5.34 µM | – | 32.1 µM | 3.33 µM | 1.79 µM | 2.02 µM | 1.41 µM | 3.12 µM | 2.02 µM | 4.85 µM | – | – |
| CC(C)C(NC(=O)C(CCCCN)NC(=O)C(Cc1c[nH]c2ccccc12)NC(=O)C(Cc1ccc(O)cc1)NC(=O)C(CS)NC(=O)C(N)Cc1ccc2ccccc2c1)C(=O)NC(CS)C(=O)NC(C(N)=O)C(C)O (stereo not drawn) (H-[2Nal]CYWKVCT-NH2; configuration not given here) | > 100 µM | > 12.5 µM and 10.9 µM | > 100 µM | > 12.5 µM | > 100 µM | > 100 µM | > 100 µM | > 100 µM | > 100 µM | > 100 µM | > 100 µM | – | – | > 12.5 µM | 2.52 µM | > 100 µM |
| CN(C)CCC1(C2=CCCC2)CC/C(=C\c2ccccc2Cl)C1=O (stereo not drawn) | 29 µM | 24.6 µM | 14.5 µM | 28 µM | 30 µM | 26.2 µM | 27.8 µM | > 100 µM | – | – | – | – | – | – | – | – |
| CCCCCCCCCOC(=S)NCCCCC | 63.4 µM | 44.8 µM | 84.1 µM | 63.2 µM | 68.3 µM | > 100 µM | > 100 µM | 40 µM | – | – | – | – | – | – | – | – |
| COC(=O)C(=O)C(C(=O)C=C(C)C)C(=O)C(=O)Nc1nc2ccc([N+](=O)[O-])cc2s1 (stereo not drawn) | > 100 µM | > 100 µM | > 100 µM | > 100 µM | > 100 µM | > 100 µM | > 100 µM | > 100 µM | – | – | – | – | – | – | – | – |
| COc1cc(CC(C(=O)O)C(=O)O)c(OC)cc1CC(C(=O)O)C(=O)O | > 100 µM | > 100 µM | > 100 µM | > 100 µM | > 100 µM | – | > 100 µM | > 100 µM | – | – | – | – | – | – | – | – |
| NNC(=O)N/N=C1\C(=O)N(c2nccs2)C(=O)C(=O)C1c1nc2ccccc2s1 (stereo not drawn) | – | > 100 µM | – | > 100 µM | > 100 µM | > 100 µM | > 100 µM | > 100 µM | – | – | – | – | – | – | – | – |
| OC1CCC[C@@H]1Sc1ccccc1 (stereo partly drawn) | > 100 µM | > 100 µM | > 100 µM | – | > 100 µM | > 100 µM | > 100 µM | > 100 µM | – | – | – | – | – | – | – | – |
| CC(=O)ON(C(C)=O)C1C(COC(c2ccccc2)(c2ccccc2)c2ccccc2)OC2OC3(CCCC3)OC21 (stereo not drawn) | > 100 µM | > 100 µM | > 100 µM | > 100 µM | > 100 µM | > 100 µM | > 100 µM | 9.83 µM | – | – | – | – | – | – | – | – |
| COc1ccc(NC(=O)CCc2cc(C(C)(C)C)n[nH]2)cc1 | > 100 µM | > 100 µM | > 100 µM | > 100 µM | > 100 µM | > 100 µM | > 100 µM | > 100 µM | – | – | – | – | – | – | – | – |
| COc1cc(/C=C\c2ccc(OC(C)=O)cc2)cc(OC)c1OC | > 100 µM | > 100 µM | > 100 µM | > 100 µM | 13.2 µM | 7.67 µM | > 100 µM | > 100 µM | – | – | – | – | – | – | – | – |
| CC1=NN(C(=O)c2ccc(Cl)cc2)C(=O)/C1=C/c1ccco1 | > 100 µM | > 100 µM | > 100 µM | > 100 µM | > 100 µM | > 100 µM | > 100 µM | > 100 µM | – | – | – | – | – | – | – | – |
| Cc1ccc(/C=C(\C#N)c2ccccc2)cc1 | > 100 µM | > 100 µM | > 100 µM | – | > 100 µM | > 100 µM | – | > 100 µM | – | – | – | – | – | – | – | – |
| CCCCCCCCCCCCCC(=O)OCC1OC(n2cc(F)c(=O)[nH]c2=O)C(N)C(OC(=O)CCCCCCCCCCCCC)C1O (stereo not drawn) | – | > 100 µM | > 100 µM | > 100 µM | > 100 µM | > 100 µM | > 100 µM | > 100 µM | – | – | – | – | – | – | – | – |
